The subject of the test is multi-cancer cell line panel. The test is described as follows: OncoPanel cytotoxicity assay, whole panel summary. The test is classed as cell-based, human. As to the method: This Example describes an evaluation of the effect of a representative small molecule MDM2i on the growth of cells in a multi-cancer cell line panel. In this Example, the MDM2 inhibitors used were Compound A and Compound B p-toluenensulfonate. The panel included 250 human cancer cell lines (OncoPanel™, Ricerca Biosciences, Painesville, Ohio) that were evaluated in a high content drug screening analysis. The relative IC50 values for the cell lines were determined.
Cells were grown in RPMI 1640, 10% FBS, 2 mM L-alanyl-L-Glutamine, 1 mM Na Pyruvate, or a special medium in a humidified atmosphere of 5% CO2 at 37° C. Cells were seeded into 384-well plates and incubated in a humidified atmosphere of 5% CO2 at 37° C. Test compounds were added 24 hours post cell seeding. […]
Compounds were serially diluted 3.16-fold and assayed over 10 concentrations of inhibitor in a final assay concentration of 0.1% DMSO from the highest test concentration specified in the sample information chapter. Automated fluorescence microscopy was carried out using a GE Healthcare InCell Analyzer 1000, and images were collected with a 4×objective. Twelve bit tiff images were acquired using the InCell Analyzer 1000 3.2 and analyzed with Developer Toolbox 1.6 software.
Cell proliferation was measured by the signal intensity of the incorporated nuclear dye. […]

As for `CC[C@@H]1CNC2(CC2)CN1C(=O)[C@@H]1C[C@@H](F)CN1C(=O)C1=C(C(C)C)N2C(=N[C@@](C)(c3ccc(Cl)nc3)[C@H]2c2ccc(Cl)c(F)c2)S1` [Compound A, [(5R,6S)-5-(4-Chloro-3-fluorophenyl)-6-(6-chloropyridin-3-yl)-6-methyl-3-(propan-2-yl)-5,6-dihydroimidazo[2,1-b][1,3]thiazol-2-yl][(2S,4R)-2-{[(6R)-6-ethyl-4,7-diazaspiro[2.5]oct-7-yl]carbonyl}-4-fluoropyrrolidin-1-yl]methanone], the “share of the cell lines with IC50 values of <1 μM” value was “Approximately 25%” and the “share of the cell lines with IC50 values of >10” value is given as “approximately 70%”.

The record behind these values is patent publication US20170283885A1, “ALGORITHMS FOR GENE SIGNATURE-BASED PREDICTOR OF SENSITIVITY TO MDM2 INHIBITORS” (DAIICHI SANKYO COMPANY, LIMITED, priority 2014, published 2017).
